Reference: patent publication US11174518B2, “Method of classifying and diagnosing cancer” (Cedars-Sinai Medical Center, priority 2015, dated 2021)

Test system: circulating tumor cells (CTC) from patients with CRPC
Experiment: Enzalutamide resistance of patient CTCs assigned to PCS subtypes by the 37-gene classifier
Format: in vivo, human
Settings: for Enzalutamide resistance / Enzalutamide resistance: proportion of CTCs from patients with enzalutamide-resistant tumors: patient CTCs
Source text: A random forest machine learning algorithm was employed to develop a diagnostic gene panel. For parameter estimation and training the model, we used the merged dataset. Initially, the model comprised of the 428 SEGs as a set of predictors and subtype label of the merged dataset was used as a response variable for model training. […] We then permuted the values for each gene across every sample and measured how much worse MSE became after the permutation. […] We analyzed single-cell RNA-seq data from 77 intact CTCs isolated from 13 patients (Miyamoto D T, Zheng […], Lee R J, Zhu H, Broderick K T, et al. RNA-Seq of single prostate CTCs implicates noncanonical Wnt signaling in antiandrogen resistance. Science 2015; 349:1351-6). Prior to the clustering analysis to investigate the expression patterns of these CTC data, the normalized read counts as read-per-million (RPM) mapped reads were transformed on a log 2 scale for each gene.

CNC(=O)c1ccc(N2C(=S)N(c3ccc(C#N)c(C(F)(F)F)c3)C(=O)C2(C)C)cc1F [Enzalutamide, enzalutamide]
OR for CTCs from patients with radiographic and/or PSA progression during enzalutamide therapy (GROUP II CTCs (high expression of PCS1-enriched genes), 5 of the 7 CTCs, 95% confidence interval 0.49-6.06): 1.74
Enzalutamide resistance (PCS1 subtype): Yes
Enzalutamide resistance: proportion of CTCs from patients with enzalutamide-resistant tumors (PCS1 subtype (7 CTCs out of 12)): 58%
Enzalutamide resistance (PCS2 subtype): No
Enzalutamide resistance: proportion of CTCs from patients with enzalutamide-resistant tumors (PCS2 subtype (5 CTCs out of 65)): 8%
